Experimental data from patent US20240238310A1, “MODULATION OF SEX STEROID HORMONE PRODUCTION AND ACTIVITY FOR TREATING AND PREVENTING HERNIAS” (Northwestern University, priority 2020, published 2024).
“Also recorded” adds a separate entry of the source.

Experiments:
Arom^hum mice [1] = test: Prevention of inguinal hernia, LAMT fibrosis and atrophy in Arom^hum mice (treatment started before hernia formation); format: in vivo, mouse
Text: Increased LAMT estrogen levels are associated with LAMT fibrosis, myocyte atrophy, and inguinal hernia development; aromatase inhibitor prevents hernia formation in Arom^hum mice. […] None of the WT littermates (n=32) developed hernia.
In the mouse, the scrotum is connected to the peritoneal cavity with a narrow funicular (or inguinal) canal, whose walls are composed of LAMT. Structurally normal LAMT is essential to maintain the tone of this canal and prevents herniation of bowel. LAMT is the critical site affected by E2 excess (FIGS. 2, 5, 6). As in many other tissues, stromal cells intimately interact with parenchymal cells (myocytes) in UAMT and LAMT (FIG. 6). […] Administration of the aromatase inhibitor letrozole started at 3 weeks of age for 12 weeks prevented LAMT atrophy, fibrosis and herniation in all (10 out of 10) treated Arom^hum mice (FIG. 6B).
Experiment 1a1: Does aromatase inhibition arrest or reverse LAMT fibrosis, atrophy, and hernia in male Arom^hum mice? […] The hernias will be classified as mild, early moderate, late moderate and severe if the bulging area through muscle tissue is <100 mm^2 (˜4 weeks), 100-150 mm^2 (˜6 weeks), 150-200 mm^2 (˜8 weeks), or >200 mm^2 (˜10 weeks), respectively. First, we will treat Arom^hum mice showing mild hernias with letrozole (SC 10 μg/day release pellet) or vehicle starting at 4 weeks of age for 12 weeks^63. We will assess whether muscle fibrosis, atrophy, and hernia can be arrested or reversed in mildly (<100 mm^2) affected animals. If early letrozole treatment can arrest mild muscle fibrosis, we will delay the initiation of treatment to 6, 8, or 10 weeks of age to determine whether letrozole can arrest or reverse the growth of the early moderate (6 weeks), late moderate (8 weeks) or severe hernia (10 weeks). Hernia development will be monitored by visual inspection twice a week for 12 weeks after letrozole administration and will be reported as hernia incidence using Kaplan-Meier curve analysis. The length and width of the observed hernias will be measured to calculate the surface area (length×width). After completion of the treatment, the mice will be dissected, and LAMT, UAMT (control), and serum will be collected. One hundred mg of frozen muscle tissue will be obtained to measure tissue estrogen levels. Circulating and tissue (LAMT and UAMT) E2 levels will be measured at the IIT Research Institute by Dr. Miguel Muzzio (see letter) using LC-MS^2. We will use immunoblotting and IHC to determine ERα expression in LAMT and UAMT.
This finding was published in PNAS in Oct., 2018. […] We treated Arom^hum mice with fulvestrant for 12 weeks starting at the age of 4 weeks (before hernia formation). As expected, placebo-treated Arom^hum mice developed scrotal hernias.

Arom^hum mice [2] = test: Reversal of established scrotal hernias and LAMT fibrosis/atrophy in Arom^hum mice; format: in vivo, mouse; conditions: for time required to reverse large hernias, compared to fulvestrant treatment / reversal of large scrotal hernia: Arom^hum mice with large hernias
Experimental: FIG. 16. […] Arom^hum mice with small to moderate size of hernias were treated with placebo or letrozole for 12 weeks. (A) Schematic diagram depicts the schedule of drug administration. (B) The area of scrotal hernia in Arom^hum mice. (C) Representative photomicrographs of Masson's trichrome-stained LAMT sections of WT and Arom^hum mice. Quantification of the percentage of connective tissue or fibrotic area (D) or myofiber area (E) in WT and Arom^hummice. 10 representative high-power fields were analyzed in each tissue. One-way ANOVA with Tukey's multiple comparison test, **p<0.01, ***p<0.001. Scale bars, […]. n=5 mice per group.
FIG. 17. […] Arom^hum mice with small to moderate size of hernias were treated with placebo or letrozole for 3 weeks. (A) Schematic diagram depicts the schedule of drug administration. (B) The area of scrotal hernia in Arom^hum mice.
FIG. 18. E2/ER antagonist fulvestrant reverses the large size of scrotal hernias and rescues LAMT fibrosis and myocyte atrophy in Arom^hum mice. Arom^hum mice with large size of hernias were treated with placebo or fulvestrant for 12 weeks. (A) Schematic diagram depicts the schedule of drug administration. (B) The area of scrotal hernia in Arom^hum mice. (C) Representative photomicrographs of Masson's trichrome-stained LAMT sections of WT and Arom^hum mice. Quantification of the percentage of connective tissue or fibrotic area (D) in WT and Arom^hum mice. 10 representative high-power fields were analyzed in each tissue. (E) Hydroxyproline content in LAMT of WT and Arom^hum mice treated with fulvestrant. One-way ANOVA with Tukey's multiple comparison test, ***p<0.001, ****p<0.0001. n=5 mice per group.
(§1) FIG. 19. Aromatase inhibitor letrozole reverses the large size of scrotal hernias in Arom^hum mice. Arom^hum mice with large size of hernias were treated with placebo or letrozole for 12 weeks. (A) Schematic diagram depicts the schedule of drug administration. (B) The area of scrotal hernia in Arom^hum mice.
as §1, with “20. E2/ER antagonist raloxifene” for “19. Aromatase inhibitor letrozole”, “raloxifene” for “letrozole”, “3” for “12”
We treated Arom^hum mice with letrozole for 12 weeks. […] Raloxifene is a selective estrogen receptor modulator (SERM) and is currently used to prevent and treat osteoporosis in postmenopausal women.
We treated Arom^hum mice with fulvestrant for 12 weeks when the hernia area was over 200 mm^2. Large hernias were completely disappeared after 3- to 4-week of fulvestrant administration. […] We measured the total amount of collagen (largely type I and III), a major component of ECM, through measuring the content of hydroxyproline(1).

LAMT E2 = test: Serum and LAMT estradiol (E2) by LC-MS^2 after letrozole treatment; format: in vivo, mouse; conditions: Arom^hum mice, letrozole 10 μg daily SC pellets starting at week 3
Experimental: FIG. 4. (A) Serum estradiol (E2) and (B) LAMT E2 were measured by liquid chromatography-tandem mass spectrometry (LC-MS^2) assay after letrozole (let) treatment (n=10/group). *p<0.05. **p<0.01. Veh, vehicle.
LAMT estrogen levels are increased in Arom^hum mice. Arom^hum mice recapitulate the primary aspects of aromatase expression in men in that most peripheral (extragonadal) tissues, such as skeletal muscle and adipose tissue, express aromatase primarily using the distal promoter 1.4 and, to a lesser extent, the proximal promoter II (FIG. 3)^32. […] Local E2 levels in LAMT, however, are strikingly higher in Arom^hum mice than in WT mice (FIG. 4B).
Increased LAMT estrogen levels are associated with LAMT fibrosis, myocyte atrophy, and inguinal hernia development; aromatase inhibitor prevents hernia formation in Arom^hum mice. […]
Experiment 1a1: Does aromatase inhibition arrest or reverse LAMT fibrosis, atrophy, and hernia in male Arom^hum mice? […] Hernia development will be monitored by visual inspection twice a week for 12 weeks after letrozole administration and will be reported as hernia incidence using Kaplan-Meier curve analysis. The length and width of the observed hernias will be measured to calculate the surface area (length×width). […] Circulating and tissue (LAMT and UAMT) E2 levels will be measured at the IIT Research Institute by Dr. Miguel Muzzio (see letter) using LC-MS^2. […]

[3] = system: LAMT primary fibroblasts from Arom^hum mice; test: mRNA levels of estrogen-responsive and fibrotic genes in LAMT primary fibroblasts after E2 antagonist treatment; format: cell-based, mouse; conditions: MPP, pretreated 2 hours before addition of E2 (10 nM)
Experimental: FIG. 10. mRNA levels of estrogen-responsive genes [Pgr (A, E) and Greb1 (B, F)] and fibrotic genes [Spon2 (C, G), Kiss1 (D), and Eln (H)] in LAMT primary fibroblasts from Arom^hum mice after treatment with 100 nM ICI 182,780 (ICI) or […] MPP in the presence or absence of E2 (10 nM). Cells were pretreated with ICI 182,780 or MPP for 2 hours before the addition of E2. Veh, vehicle. *P<0.05, **P<0.01. GAPDH mRNA levels served as controls.
Experiment 1a2: Does the general E2 antagonist fulvestrant, which downregulates and blocks ER, or ERα-selective E2 antagonist MPP prevent, arrest or reverse LAMT muscle fibrosis, atrophy and inguinal hernias in male Arom^hum mice? […] Here, we will define whether the effects of E2 on hernia formation in LAMT is mediated via ERα in vivo. We will treat Arom^hum or WT mice with vehicle, fulvestrant (ICI 182,780), or MPP. […] Circulating and muscle tissue E2 levels will be measured using LC-MS^2. To validate the effects of each treatment, protein expression of ERα and E2/ERα target genes (Ccnd1, Pgr, and Greb1), and cell proliferation markers (Ki67 and PCNA) will be determined by IHC and immunoblotting. Fibrotic-related genes (Kiss1, Ren1, Emb, Timp1, Spon2, and Eln), the ECM marker Col1a1, and the myocyte marker Myh will be assessed using qPCR and IHC in LAMT after fulvestrant, MPP, and/or letrozole treatment. […]

Arom^hum mice [4] = conditions: 3 weeks old mice; high-dose DHT via injection for 53 days; vs vehicle; p<0.005
Experimental: 3-week-old mice were treated with vehicle (Veh) or DHT for 53 days.

LAMT WT fibroblasts = test: R1881 treatment of primary fibroblasts, western blot (AR, PCNA); format: cell-based, mouse; conditions: for increase in PCNA levels (densitometry normalized to GAPDH): preliminary data
Experimental: (§2) Primary fibroblasts were isolated from LAMT from WT and Arom^Hum mice (n=5/genotype). Cells were treated for 24 hours with increasing doses (0.001, 0.01, 0.1, 1, 5, 10, and 100 nM) of R1881, a synthetic androgen, and compared to untreated cells by western blot.

[5] = system: LAMT Arom^Hum fibroblasts; test: as above; format: cell-based, mouse; conditions: for increase in PCNA levels (densitometry normalized to GAPDH): preliminary data
Experimental: as §2

[6] = Arom^hum mice with small to moderate hernias, letrozole for 12 weeks
[7] = R1881 0.001-100 nM, 24 hours, western blot

N#Cc1ccc(C(c2ccc(C#N)cc2)n2cncn2)cc1 [letrozole]
hernia development (Arom^hum mice [1]; Arom^hum male mice, letrozole 10 μg daily via subcutaneous slow-release pellets starting at week 3, 12 weeks): entirely prevented LAMT fibrosis or inguinal hernia development in all animals; also recorded: prevented hernia development in all Arom^hum mice; also recorded: prevents abdominal bulging, LAMT stromal fibrosis, myocyte atrophy, and inguinal hernias in three lines of Arom^hum mice; also recorded: completely prevented the formation of inguinal hernias
ECM content in LAMT (Arom^hum mice [1]; Arom^hum mice): significantly decreased
development of LAMT fibrosis (fibrotic area, Masson's trichrome) (Arom^hum mice [1]; Arom^hum mice, 4-week-old mice treated for 12 weeks, FIGS. 15C and D): completely prevented with letrozole treatment
stromal cell proliferative activity (Ki67-positive stromal cells) in LAMT (Arom^hum mice [1]; Arom^hum mice, FIG. 7E): significantly decreased stromal cell proliferative activity
LAMT atrophy and fibrosis (Masson's trichrome staining) (Arom^hum mice [1]; Arom^hum mice, letrozole, FIG. 6B): prevented LAMT atrophy and fibrosis
treated mice in which LAMT atrophy, fibrosis and herniation were prevented (Arom^hum mice [1]; Arom^hum mice, started at 3 weeks of age for 12 weeks): 10 out of 10
time required to reverse large hernias, compared to fulvestrant treatment (Arom^hum mice [2]): require a longer time to reverse large hernias as compared to fulvestrant treatment
reversal of large scrotal hernia (Arom^hum mice [2]; letrozole for 12 weeks, FIG. 19): reverses large scrotal hernia
muscle fibrosis (Arom^hum mice [2]; [6]): reduction in muscle fibrosis
myocyte size (Arom^hum mice [2]; [6]): restoration of myocyte size
reversal of mild to moderate size of hernia (150-200 mm^2) (Arom^hum mice [2]; Arom^hum mice, letrozole for 12 weeks, FIG. 16): can reverse mild to moderate size of hernia
LAMT E2 levels (LAMT E2): restored LAMT E2 levels similar to WT LAMT levels

Cc1c(-c2ccc(O)cc2)nn(-c2ccc(O)cc2)c1-c1ccc(OCCN2CCCCC2)cc1 [MPP, Methyl-Piperidino-Pyrazole]
E2-induced expression of estrogen-responsive genes (Pgr and Greb1) and fibrotic genes (Spon2, Kiss1, Eln) [3]: significantly decreased E2-induced expression of estrogen-responsive genes (Pgr and Greb1) and fibrotic genes (Spon2, Kiss1 and, Eln)

C[C@]12CCC(=O)C[C@@H]1CC[C@@H]1[C@@H]2CC[C@]2(C)[C@@H](O)CC[C@@H]12 [DHT, dihydrotestosterone]
hernia volume (Arom^hum mice [4]): significantly decreased

O=C(c1ccc(OCCN2CCCCC2)cc1)c1c(-c2ccc(O)cc2)sc2cc(O)ccc12 [raloxifene]
time required to reverse large hernias, compared to fulvestrant treatment (Arom^hum mice [2]): require a longer time to reverse large hernias as compared to fulvestrant treatment
reversal of large scrotal hernia (Arom^hum mice [2]; raloxifene for 3 weeks, FIG. 20): reverses large scrotal hernia
reversal of small to large hernias (Arom^hum mice [2]; Arom^hum mice, 3-week raloxifene treatment, FIGS. 17 and 20): capable to reverse small to large hernias
reversal of mild to moderate size of hernia (Arom^hum mice [2]; Arom^hum mice, raloxifene for 21 days, FIG. 17): can also reverse mild to moderate size of hernia; also recorded: reverses the small to moderate size of scrotal hernias

C[C@]1(O)CC[C@H]2[C@@H]3CCC4=CC(=O)CCC4=C3C=C[C@@]21C [R1881, (17b)-17-Hydroxy-17-methyl-estra-4,9,11-trien-3-one]
increase in PCNA levels (densitometry normalized to GAPDH) (LAMT WT fibroblasts; 0.001 nM R1881, 24 hours): 80%
increase in PCNA levels (densitometry normalized to GAPDH) (LAMT WT fibroblasts; 0.01 nM R1881, 24 hours): 60%
decrease in PCNA levels (LAMT WT fibroblasts; 100 nM R1881, 24 hours): 25%
AR levels (LAMT WT fibroblasts; [7]): increased AR levels in a dose-dependent manner
increase in PCNA levels (densitometry normalized to GAPDH) ([5]; 0.001 nM R1881, 24 hours): 20%
increase in PCNA levels (densitometry normalized to GAPDH) ([5]; 0.01 nM R1881, 24 hours): 30%
decrease in PCNA levels ([5]; 10 nM R1881, 24 hours): 40%
decrease in PCNA levels ([5]; 100 nM R1881, 24 hours): 30%
AR levels [5, 7]: increased AR levels in a dose-dependent manner
